Source: patent publication US20260048047A1, “SMALL-MOLECULE ACTIVATORS OF MYCOBACTERIUM TUBERCULOSIS ADENYLYL CYCLASE” (priority 2022, published 2026)

System: M. tuberculosis
Assay: Extracellular activity against M. tuberculosis in cholesterol media (Alamar Blue reduction assay)
Format: cell-based, Mycobacterium tuberculosis
Conditions: 7H12-Cholesterol media, 10 days; read-out: Cholesterol broth: alamar blue--EC50

`O=C(Cc1cnccn1)N1CCC(n2nnc(-c3ccc(F)cc3)n2)CC1` [Compound 4, 1-(4-(5-(4-fluorophenyl)-2H-tetrazol-2-yl)piperidin-1-yl)-2-(pyrazin-2-yl)ethan-1-one] gave an EC50 of 0.122 µM.

Same assay, conditions: Mycobacterium tuberculosis, 240 h, 7H12-Cholesterol media, 10 days; read-out: Cholesterol broth: alamar blue--EC50

`Cc1noc(CC(=O)N2CCC(O)(c3nc(-c4ccc(F)cc4)no3)CC2)n1` [Compound 54, 1-(4-(3-(4-fluorophenyl)-1,2,4-oxadiazol-5-yl)-4-hydroxypiperidin-1-yl)-2-(3-methyl-1,2,4-oxadiazol-5-yl)ethan-1-one] and `Cc1noc(CC(=O)N2CC3CC2CC3c2nc(-c3ccc(F)cc3)no2)n1` (centres unmarked) [Compound 193, 1-(5-(3-(4-fluorophenyl)-1,2,4-oxadiazol-5-yl)-2-azabicyclo[2.2.1]heptan-2-yl)-2-(3-methyl-1,2,4-oxadiazol-5-yl)ethan-1-one] cannot be ordered by EC50: greater than 10 µM for the first, greater than 10 µM for the second.

First: Cc1nccnc1CC(=O)N1CCC(c2nc(-c3ccc(Cl)c(Cl)c3)no2)CC1 [Compound 14, 1-(4-(3-(3,4-dichlorophenyl)-1,2,4-oxadiazol-5-yl)piperidin-1-yl)-2-(3-methylpyrazin-2-yl)ethan-1-one]
Second: Cc1nonc1CC(=O)N1CCC(c2nc(-c3ccc(Cl)c(F)c3)no2)CC1 [Compound 118, 1-(4-(3-(4-chloro-3-fluorophenyl)-1,2,4-oxadiazol-5-yl)piperidin-1-yl)-2-(4-methyl-1,2,5-oxadiazol-3-yl)ethan-1-one]
The EC50 of the first is 100-fold higher: 8.32 µM for the first, 0.0805 µM for the second. The second is the more potent here.

`Cc1noc(CC(=O)N2CCC(n3nnc(C4CCCCC4)n3)CC2)n1` [Compound 24, 1-(4-(5-cyclohexyl-2H-tetrazol-2-yl)piperidin-1-yl)-2-(3-methyl-1,2,4-oxadiazol-5-yl)ethan-1-one] and `Cc1noc(CC(=O)N2CCC(c3nc(C4CCCCC4)no3)CC2)n1` [Compound 23, 1-(4-(3-cyclohexyl-1,2,4-oxadiazol-5-yl)piperidin-1-yl)-2-(3-methyl-1,2,4-oxadiazol-5-yl)ethan-1-one] cannot be ordered by EC50: greater than 25 µM for the first, greater than 10 µM for the second.

`Cc1noc(CC(=O)N2CC3CC(C2)C3c2nc(-c3ccc(F)c(F)c3)no2)n1` (centres unmarked) [Compound 208, 1-(6-(3-(3,4-difluorophenyl)-1,2,4-oxadiazol-5-yl)-3-azabicyclo[3.1.1]heptan-3-yl)-2-(3-methyl-1,2,4-oxadiazol-5-yl)ethan-1-one] and `Cc1noc(CC(=O)N2CC3CC(C2)C3c2nc(-c3ccc(Cl)c(Cl)c3)no2)n1` (centres unmarked) [Compound 206, 1-(6-(3-(3,4-dichlorophenyl)-1,2,4-oxadiazol-5-yl)-3-azabicyclo[3.1.1]heptan-3-yl)-2-(3-methyl-1,2,4-oxadiazol-5-yl)ethan-1-one] cannot be ordered by EC50: no less than 10 µM for the first, greater than 10 µM for the second.

Going from `Cc1nonc1CC(=O)N1CCC2(CC1)CC(c1nc(-c3ccc(F)cc3)no1)C2` [Compound 233, 1-(2-(3-(4-fluorophenyl)-1,2,4-oxadiazol-5-yl)-7-azaspiro[3.5]nonan-7-yl)-2-(4-methyl-1,2,5-oxadiazol-3-yl)ethan-1-one] to `Cc1nonc1CC(=O)N1CCCC(c2nc(-c3ccc(F)cc3)no2)C1` (centres unmarked) [Compound 256, 1-(3-(3-(4-fluorophenyl)-1,2,4-oxadiazol-5-yl)piperidin-1-yl)-2-(4-methyl-1,2,5-oxadiazol-3-yl)ethan-1-one], the EC50 rises from 0.45 µM to greater than 10 µM.

`Cn1ncnc1CC(=O)N1CCC(c2noc(C34CC(F)(C3)C4)n2)CC1` [Compound 173, 1-(4-(5-(3-fluorobicyclo[1.1.1]pentan-1-yl)-1,2,4-oxadiazol-3-yl)piperidin-1-yl)-2-(1-methyl-1H-1,2,4-triazol-5-yl)ethan-1-one] and `Cn1ncnc1CC(=O)N1CCC(c2nc(C34CC(C)(C3)C4)no2)CC1` [Compound 162, 2-(1-methyl-1H-1,2,4-triazol-5-yl)-1-(4-(3-(3-methylbicyclo[1.1.1]pentan-1-yl)-1,2,4-oxadiazol-5-yl)piperidin-1-yl)ethan-1-one] cannot be ordered by EC50: greater than 10 µM for the first, greater than 10 µM for the second.

Going from `Cn1ncnc1CC(=O)N1CCC(c2nc([C@@H]3CC[C@](C)(F)C3)no2)CC1` [Compound 159, 1-(4-(3-((1R,3S)-3-fluoro-3-methylcyclopentyl)-1,2,4-oxadiazol-5-yl)piperidin-1-yl)-2-(1-methyl-1H-1,2,4-triazol-5-yl)ethan-1-one] to `Cn1ncnc1CC(=O)N1CCC(c2nc(-c3ccc(Cl)c(F)c3)no2)CC1` [Compound 176, 1-(4-(3-(4-chloro-3-fluorophenyl)-1,2,4-oxadiazol-5-yl)piperidin-1-yl)-2-(1-methyl-1H-1,2,4-triazol-5-yl)ethan-1-one], the EC50 falls from greater than 10 µM to 0.115 µM. The second is the more potent here.

`Cc1nonc1CC(=O)N1CCC2(CCC2n2nnc(-c3ccc(F)cc3)n2)CC1` (centres unmarked) [Compound 258, 1-(1-(5-(4-fluorophenyl)-2H-tetrazol-2-yl)-7-azaspiro[3.5]nonan-7-yl)-2-(4-methyl-1,2,5-oxadiazol-3-yl)ethan-1-one] and `Cc1nonc1CC(=O)N1CC2CC(C1)C2n1nnc(-c2ccc(F)cc2)n1` (centres unmarked) [Compound 243, 1-(6-(5-(4-fluorophenyl)-2H-tetrazol-2-yl)-3-azabicyclo[3.1.1]heptan-3-yl)-2-(4-methyl-1,2,5-oxadiazol-3-yl)ethan-1-one] cannot be ordered by EC50: greater than 25 µM for the first, greater than 10 µM for the second.

Going from `Cn1ncnc1CC(=O)N1CC2CC1CC2c1nc(-c2ccc(Cl)cc2)no1` (centres unmarked) [Compound 200, 1-(5-(3-(4-chlorophenyl)-1,2,4-oxadiazol-5-yl)-2-azabicyclo[2.2.1]heptan-2-yl)-2-(1-methyl-1H-1,2,4-triazol-5-yl)ethan-1-one] to `Cn1ncnc1CC(=O)N1CCC(c2nc(-c3ccc(F)c(Cl)c3)no2)CC1` [Compound 183, 1-(4-(3-(3-chloro-4-fluorophenyl)-1,2,4-oxadiazol-5-yl)piperidin-1-yl)-2-(1-methyl-1H-1,2,4-triazol-5-yl)ethan-1-one], the EC50 falls from 0.37 µM to 0.21 µM (1.8-fold).

Compared with `COC(C)c1noc(C2CCN(C(=O)Cc3nonc3C)CC2)n1` (centres unmarked) [Compound 91, 1-(4-(3-(1-methoxyethyl)-1,2,4-oxadiazol-5-yl)piperidin-1-yl)-2-(4-methyl-1,2,5-oxadiazol-3-yl)ethan-1-one], `Cc1nonc1CC(=O)N1CCC(c2nc(C3CC3(C)C)no2)CC1` (centres unmarked) [Compound 86, 1-(4-(3-(2,2-dimethylcyclopropyl)-1,2,4-oxadiazol-5-yl)piperidin-1-yl)-2-(4-methyl-1,2,5-oxadiazol-3-yl)ethan-1-one] is lower in EC50: greater than 10 µM for the first, 1.81 µM for the second. The second is the more potent here.

Going from `Cc1nonc1CC(=O)N1CCC(c2nc(C3(C)CCCCC3)no2)CC1` [Compound 84, 2-(4-methyl-1,2,5-oxadiazol-3-yl)-1-(4-(3-(1-methylcyclohexyl)-1,2,4-oxadiazol-5-yl)piperidin-1-yl)ethan-1-one] to `Cc1nonc1CC(=O)N1CCC(c2nc(C34CCC(CC3)C4)no2)CC1` [Compound 78, 1-(4-(3-(bicyclo[2.2.1]heptan-1-yl)-1,2,4-oxadiazol-5-yl)piperidin-1-yl)-2-(4-methyl-1,2,5-oxadiazol-3-yl)ethan-1-one], the EC50 rises from 2.13 µM to 3.76 µM (1.8-fold). The first is the more potent here.

Going from `Cc1nonc1CC(=O)N1CCC(c2nc(-c3ccc(F)cc3C(F)(F)F)no2)CC1` [Compound 123] to `Cc1nonc1CC(=O)N1CCC(c2nc(-c3ccc(Cl)c(C(F)(F)F)c3)no2)CC1` [Compound 105, 1-(4-(3-(4-chloro-3-(trifluoromethyl)phenyl)-1,2,4-oxadiazol-5-yl)piperidin-1-yl)-2-(4-methyl-1,2,5-oxadiazol-3-yl)ethan-1-one], the EC50 falls from 1.48 µM to 0.744 µM (2-fold).

Going from `Cc1noc(CC(=O)N2CCC3(CCC3c3nc(-c4ccc(Cl)c(Cl)c4)no3)CC2)n1` (centres unmarked) [Compound 239, 1-(1-(3-(3,4-dichlorophenyl)-1,2,4-oxadiazol-5-yl)-7-azaspiro[3.5]nonan-7-yl)-2-(3-methyl-1,2,4-oxadiazol-5-yl)ethan-1-one] to `Cc1nonc1CC(=O)N1CCC(O)(c2nc(-c3ccc(Cl)c(Cl)c3)no2)CC1` [Compound 96, 1-(4-(3-(3,4-dichlorophenyl)-1,2,4-oxadiazol-5-yl)-4-hydroxypiperidin-1-yl)-2-(4-methyl-1,2,5-oxadiazol-3-yl)ethan-1-one], the EC50 falls from greater than 25 µM to 0.61 µM. The second is the more potent here.

First: Cc1nonc1CC(=O)N1CCC(c2nc(-c3ccc(F)cn3)no2)CC1 [Compound 141, 1-(4-(3-(5-fluoropyridin-2-yl)-1,2,4-oxadiazol-5-yl)piperidin-1-yl)-2-(4-methyl-1,2,5-oxadiazol-3-yl)ethan-1-one]
Second: Cc1nonc1CC(=O)N1CCC(c2nc(-c3cc(F)cc(Cl)c3)no2)CC1 [Compound 119, 1-(4-(3-(3-chloro-5-fluorophenyl)-1,2,4-oxadiazol-5-yl)piperidin-1-yl)-2-(4-methyl-1,2,5-oxadiazol-3-yl)ethan-1-one]
The EC50 of the first is higher: greater than 10 µM for the first, 0.47 µM for the second.

Going from `O=C(Cc1cc(=O)[nH]c(=O)[nH]1)N1CCC(c2nc(-c3ccc(F)cc3)no2)CC1` [Compound 1, 6-(2-(4-(3-(4-fluorophenyl)-1,2,4-oxadiazol-5-yl)piperidin-1-yl)-2-oxoethyl)pyrimidine-2,4(1H,3H)-dione] to `Cc1nonc1CC(=O)N1CCC(c2nc(-c3ccc(OC(F)(F)F)cc3)no2)CC1` [Compound 102, 2-(4-methyl-1,2,5-oxadiazol-3-yl)-1-(4-(3-(4-(trifluoromethoxy)phenyl)-1,2,4-oxadiazol-5-yl)piperidin-1-yl)ethan-1-one], the EC50 falls from 0.784 µM to 0.167 µM (4.7-fold). The second is the more potent here.

First: Cc1nonc1CC(=O)N1CCC(c2nc(C3CCC4(CC3)CC4)no2)CC1 [Compound 68, 2-(4-methyl-1,2,5-oxadiazol-3-yl)-1-(4-(3-(spiro[2.5]octan-6-yl)-1,2,4-oxadiazol-5-yl)piperidin-1-yl)ethan-1-one]
Second: Cc1nonc1CC(=O)N1CCC(c2nc(C3CCC(C)(C)CC3)no2)CC1 [Compound 88, 1-(4-(3-(4,4-dimethylcyclohexyl)-1,2,4-oxadiazol-5-yl)piperidin-1-yl)-2-(4-methyl-1,2,5-oxadiazol-3-yl)ethan-1-one]
The EC50 of the first is 10-fold higher: 1.86 µM for the first, 0.181 µM for the second. The second is the more potent here.

`Cc1noc(CC(=O)N2CCC(c3nc(C45CCC(CC4)C5)no3)CC2)n1` [Compound 26, 1-(4-(3-(bicyclo[2.2.1]heptan-1-yl)-1,2,4-oxadiazol-5-yl)piperidin-1-yl)-2-(3-methyl-1,2,4-oxadiazol-5-yl)ethan-1-one] and `Cc1nonc1CC(=O)N1CC(c2nc(-c3ccc(F)cc3)no2)C1` [Compound 257, 1-(3-(3-(4-fluorophenyl)-1,2,4-oxadiazol-5-yl)azetidin-1-yl)-2-(4-methyl-1,2,5-oxadiazol-3-yl)ethan-1-one] cannot be ordered by EC50: greater than 25 µM for the first, greater than 10 µM for the second.
